{"source": "patent US20170355708A1", "about": "“POTASSIUM CHANNEL MODULATORS” (Cadent Therapeutics, Inc., priority 2016, published 2017)"}
{"biological_target": "T1, hSK2 channels (Homo sapiens, UniProt P0DP23+Q9H2S1)", "T1 construct": "expressed in transfected cells; host or cells: HEK293", "test": "Whole-cell patch-clamp recording of SK2 channel current (SC100)", "type": "cell-based", "conditions": "Stimulating Concentration required for increasing the baseline current by 100%; HEK293 cells expressing hSK2; Table 3", "experimental": "(§1) The biological activity of certain compounds were determined as follows. The ionic current through small-conductance Ca^2+-activated K^+ channels (SK channels, subtype 2) is recorded using the whole-cell configuration of the patch-clamp technique in a classic patch-clamp set-up using HEK293 tissue culture cells expressing hSK2 channels as described in Kasumu et. al., Chemistry & Biology 19, 1340-1353, Oct. 26, 2012.\n(§2) The SC100 value determined is defined as the Stimulating Concentration required for increasing the baseline current by 100%."}
{"smiles": "Cc1cc(Nc2ccc(F)cc2)nc(-n2ccc(CO)n2)n1", "note": "[Compound 137, (1-(4-((4-fluorophenyl)amino)-6-methylpyrimidin-2-yl)-1H-pyrazol-3-yl)methanol]", "SC100 uM": "+ (+ means >1 uM)"}
{"smiles": "Cc1cc(C)n(-c2nc(Nc3ccc(Cl)cc3)nc3c2ncn3CCO)n1", "note": "[Compound 135, 2-(2-((4-chlorophenyl)amino)-6-(3,5-dimethyl-1H-pyrazol-1-yl)-9H-purin-9-yl)ethan-1-ol]", "SC100 uM": "++ (++ means 200 nM-1000 nM)"}
{"smiles": "Cc1cc(C)n(-c2cc(N3C[C@@H]4C[C@H]3CN4)nc(Nc3ccc(F)c(F)c3)n2)n1", "note": "(stereo in doubt) [Compound 109, 4-((1S,4S)-2,5-diazabicyclo[2.2.1]heptan-2-yl)-N-(3,4-difluorophenyl)-6-(3,5-dimethyl-1H-pyrazol-1-yl)pyrimidin-2-amine]", "SC100 uM": "++ (++ means 200 nM-1000 nM)"}
{"smiles": "CC(=O)NCc1cc(Nc2ccc(Cl)cc2)nc(-n2ccc(CF)n2)c1", "note": "[Compound 164, N-((2-((4-chlorophenyl)amino)-6-(3-(fluoromethyl)-1H-pyrazol-1-yl)pyridin-4-yl)methyl)acetamide]", "SC100 uM": "+++ (+++ means <200 nM)"}
{"smiles": "Cc1cc(Nc2ccc(F)cc2)nc(-n2ccc(C(C)(C)O)n2)n1", "note": "[Compound 138, 2-(1-(4-((4-fluorophenyl)amino)-6-methylpyrimidin-2-yl)-1H-pyrazol-3-yl)propan-2-ol]", "SC100 uM": "+ (+ means >1 uM)"}
{"smiles": "CC(=O)N1CCN(c2cc(Nc3ccc(F)c(F)c3)nc(-n3nc(C)cc3C)n2)CC1", "note": "[Compound 100, 1-(4-(6-((3,4-difluorophenyl)amino)-2-(3,5-dimethyl-1H-pyrazol-1-yl)pyrimidin-4-yl)piperazin-1-yl)ethan-1-one]", "SC100 uM": "+++ (+++ means <200 nM)"}
{"smiles": "Cc1cc(C)n(-c2nc(Nc3ccc(F)c(F)c3)cc(NC(C)C(N)=O)n2)n1", "note": "(stereo not drawn) [Compound 126, 2-((6-((3,4-difluorophenyl)amino)-2-(3,5-dimethyl-1H-pyrazol-1-yl)pyrimidin-4-yl)amino)propanamide]", "SC100 uM": "++ (++ means 200 nM-1000 nM)"}
{"smiles": "CC(=O)NCc1cc(Nc2ccc(F)cc2)nc(-n2ccc(CF)n2)c1", "note": "[Compound 159, N-((2-(3-(fluoromethyl)-1H-pyrazol-1-yl)-6-((4-fluorophenyl)amino)pyridin-4-yl)methyl)acetamide]", "SC100 uM": "+++ (+++ means <200 nM)"}
{"smiles": "Cc1cc(C)n(-c2cc(N3CCNC(C(N)=O)C3)nc(Nc3ccc(F)cc3F)n2)n1", "note": "(stereo not drawn) [Compound 110, 4-(2-((2,4-difluorophenyl)amino)-6-(3,5-dimethyl-1H-pyrazol-1-yl)pyrimidin-4-yl)piperazine-2-carboxamide]", "SC100 uM": "++ (++ means 200 nM-1000 nM)"}
{"smiles": "Cc1cc(Nc2ccc(F)cc2)nc(-n2ccc(CF)n2)n1", "note": "[Compound 141, 2-(3-(fluoromethyl)-1H-pyrazol-1-yl)-N-(4-fluorophenyl)-6-methylpyrimidin-4-amine]", "SC100 uM": "++ (++ means 200 nM-1000 nM)"}
{"smiles": "Cc1cc(C)n(-c2cc(N3CCO[C@@H](C(N)=O)C3)nc(Nc3ccc(F)c(F)c3)n2)n1", "note": "(single isomer, unassigned) [Compound 132, (−)-4-(2-((3,4-difluorophenyl)amino)-6-(3,5-dimethyl-1H-pyrazol-1-yl)pyrimidin-4-yl)morpholine-2-carboxamide]", "SC100 uM": "+++ (+++ means <200 nM)"}
{"biological_target": "T1, hSK2 channels", "test": "Whole-cell patch-clamp recording of SK2 channel current (SC100)", "type": "cell-based", "conditions": "Stimulating Concentration required for increasing the baseline current by 100%; HEK293 cells expressing hSK2; Table 4", "experimental": "as §1, §2"}
{"smiles": "Cc1cc(C)n(-c2cc(C(C)O)cc(Nc3ccc(F)cc3)n2)n1", "note": "(stereo not drawn) [IN10964-084-P1, 1-(2-(3,5-dimethyl-1H-pyrazol-1-yl)-6-((4-fluorophenyl)amino)pyridin-4-yl)ethan-1-ol]", "SC100 (μM)": "+ (+ means >1 uM)"}
{"smiles": "CC(=O)c1cc(Nc2cccc(C(F)(F)F)c2)nc(-n2ccc(C)n2)n1", "note": "[IN10876-038-P1]", "SC100 (μM)": "+ (+ means >1 uM)"}
{"smiles": "Cc1csc(-c2nc(Nc3cccc(C(F)(F)F)c3)cc(C(C)O)n2)n1", "note": "(stereo not drawn) [IN10880-092-P1]", "SC100 (μM)": "++ (++ means 200 nM-1000 nM)"}
{"smiles": "Cc1cccc(-c2nc(Nc3ccc(F)cc3)cc(N3CCOCC3)n2)n1", "note": "[NSSy6907, N-(4-fluorophenyl)-2-(6-methylpyridin-2-yl)-6-morpholinopyrimidin-4-amine]", "SC100 (μM)": "++ (++ means 200 nM-1000 nM)"}
